Measured values published in US20180312493A1, “Antibiotic Compounds, Pharmaceutical Formulations Thereof And Methods And Uses Therefor” (Simon Fraser University, priority 2015, published 2018).
In brackets after ≈: the same amount, converted by molar mass. Structures can show the parent of a compound that is named as a salt. Where two headings read alike, the source gives them in different places.

What was measured:
[1] = Mammalian cytotoxicity, CellTiter 96 AQueous One (MTS); type: cell-based; details: human, HeLa 229 cells, positive control
Description: The cytotoxic activities of compounds were determined for HeLa cells 229 (ATCC:CCL-2-.1) in microtiter cultures by measuring dehydrogenase activity using CellTiter 96® AQueous One Solution Cell Proliferation Assay™ (Promega™, Madison, Wis., USA), according to the manufacturer's protocol. Freshly split cells were seeded into microtiter wells (2×10^4/well) and grown for 24 hours. The original media was then removed and replaced with media containing the desired concentration of compound or solvent control (i.e., DMSO). Plates were incubated for 24 h at 37° C. in a humidified incubator with a 5% CO2 atmosphere. At the end of the growth period, cells were lysed by the addition of 20 μl of Cell Titer 96 Aqueous One™ solution, and the incubation was continued for another 3 h at 37° C. Production of formazan was determined at 490 nm on Benchmark Plus™ microplate spectrophotometer (Bio-Rad™). To control for intrinsic absorbance, control series containing inhibitor dilutions but no cells were run for every experiment and the resulting absorbance values were subtracted as background from the experimental readings. Growth in compound-free control wells was considered as 100% and percentage of growth inhibition was calculated for each compound concentration. Cytotoxicity was quantified as the CC50, the concentration of compound that inhibited 50% of conversion of MTS to formazan. […]

MRSA Pyk = target: T1, MRSA Pyk (Staphylococcus aureus, UniProt Q6GG09); assay: MRSA pyruvate kinase (PK) activity, continuous LDH-coupled assay; type: biochemical, methicillin resistant S. aureus (MRSA252)
T1 construct: made in house; host or cells: E. coli BL-21 (DE3)
Method in brief: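 His-tagged MRSA PK (strain Sanger 252) and human PK isoforms expressed in E. coli BL-21 (DE3) and Ni-NTA purified, used at 15 nM in an LDH-coupled assay following NADH oxidation at 340 nm, 30° C, up to 5 min, ≤1% DMSO. IC50 from four-parameter variable-slope fit; Ki with PEP 2-20 mM, ADP fixed 2 mM, inhibitor 0-400 nM.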

K. pneumoniae (C238) = assay: In vitro susceptibility, broth microdilution (MIC); type: cell-based; details: Klebsiella pneumoniae, read-out: Antimicrobial activity (MIC) K. pneumoniae
Method in brief: (§1)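 CLSI 2-fold serial broth microdilution; K. pneumoniae C238 grown in L-broth, S. aureus ATCC 29213 in Mueller Hinton broth, plates incubated 18–24 h at 37 °C. MIC taken as lowest concentration giving complete growth inhibition by OD600 versus compound-free wells, background-subtracted.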

S. aureus (ATCC29213) = assay: In vitro susceptibility, broth microdilution (MIC); type: cell-based; details: Staphylococcus aureus
Method in brief: as §1

MRSA MW2 (USA400) = assay: In vitro susceptibility, broth microdilution (MIC); type: cell-based, methicillin resistant S. aureus; details: Staphylococcus aureus, read-out: Antimicrobial activity (MIC) MSRA USA400
Method in brief: (§2)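 MIC determined by CLSI 2-fold broth microdilution in cation-adjusted Mueller–Hinton broth at ~2.5×10^5 CFU/ml, final compound 0.031–64 μg/ml, 18–24 h at 37 °C. MIC is the lowest concentration giving complete growth inhibition by background-corrected OD600 versus compound-free wells; duplicate or triplicate wells, replicated at least twice.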

VRE#2 (2010A) = assay: In vitro susceptibility, broth microdilution (MIC); type: cell-based, vancomycin resistant Enterococci; details: read-out: Antimicrobial activity (MIC) VRE#2
Method in brief: as §2

[2] = tested on: A. baumannii (ATCC 17978); assay: In vitro susceptibility, broth microdilution (MIC); type: cell-based; details: Acinetobacter baumannii
Method in brief: as §2

S. aureus ATCC 29123 = assay: Thigh infection model in neutropenic mice; type: in vivo, female CD-1 mice; details: thigh muscle, 10 mg/kg IV BID (2 and 8 h post-infection), 24 hr post infection
Description: The antimicrobial activity of compounds 23 and 60 against S. aureus ATCC 29123 was tested in vivo using a thigh infection model in neutropenic mice. Briefly, animals (female CD-1 mice, 5 weeks of age) were made neutropenic prior to S. aureus thigh infection by pre-treating with cyclophosphamide (150 mg/kg, IP, −4 and −1 days pre-inoculation). On the inoculation day (day 0), mice were infected with S. aureus at time zero (t=0). Animals were individually monitored for adverse reactions for 30 min post-infection.
Compounds 23 and 60 were prepared for IV administration and for oral administration. Vancomycin was administered as a solution in PBS. The test compounds were administered at 2 and 8 hours post-infection and animals were individually monitored for adverse reactions for 30 min after each injection. All animals were then monitored hourly from 20 hours post infection to the endpoint (t=24 hr post infection). At the indicated timepoint, animals were sacrificed and the injected thigh collected.
Quantitative enumeration of bacterial load was determined by plating serial dilutions from homogenized thigh muscles. The plates were incubated and colony counts were determined. CFU per mL calculated was calculated.

[3] = tested on: S. typhimurium (ATCC BAA-185); assay: In vitro susceptibility, broth microdilution (MIC); type: cell-based; details: Salmonella enterica, read-out: Antimicrobial activity (MIC) S. typhimurium
Method in brief: as §2

MRSA (ATCC BAA-1762) = assay: In vitro susceptibility, broth microdilution (MIC); type: cell-based, methicillin resistant S. aureus; details: Staphylococcus aureus; MRSA ATCC BAA-1762; read-out: Antimicrobial activity (MIC) MRSA ATCC BAA1762
Method in brief: as §2

[4] = tested on: A. baumannii (ATCC 19606); assay: In vitro susceptibility, broth microdilution (MIC); type: cell-based; details: Acinetobacter baumannii, ATCC19606; A. baumannii ATCC 19606 (values without asterisk); read-out: Antimicrobial activity (MIC) A. baumannii
Method in brief: as §2

[5] = S. aureus ATCC29213, 18-24 h, 37 C, read-out: Antimicrobial activity (MIC) S. aureus ATCC29213
[6] = ATCC17978, A. baumannii ATCC 17978 (values marked *), read-out: Antimicrobial activity (MIC) A. baumannii

T1 sequence (Q6GG09 whole entry): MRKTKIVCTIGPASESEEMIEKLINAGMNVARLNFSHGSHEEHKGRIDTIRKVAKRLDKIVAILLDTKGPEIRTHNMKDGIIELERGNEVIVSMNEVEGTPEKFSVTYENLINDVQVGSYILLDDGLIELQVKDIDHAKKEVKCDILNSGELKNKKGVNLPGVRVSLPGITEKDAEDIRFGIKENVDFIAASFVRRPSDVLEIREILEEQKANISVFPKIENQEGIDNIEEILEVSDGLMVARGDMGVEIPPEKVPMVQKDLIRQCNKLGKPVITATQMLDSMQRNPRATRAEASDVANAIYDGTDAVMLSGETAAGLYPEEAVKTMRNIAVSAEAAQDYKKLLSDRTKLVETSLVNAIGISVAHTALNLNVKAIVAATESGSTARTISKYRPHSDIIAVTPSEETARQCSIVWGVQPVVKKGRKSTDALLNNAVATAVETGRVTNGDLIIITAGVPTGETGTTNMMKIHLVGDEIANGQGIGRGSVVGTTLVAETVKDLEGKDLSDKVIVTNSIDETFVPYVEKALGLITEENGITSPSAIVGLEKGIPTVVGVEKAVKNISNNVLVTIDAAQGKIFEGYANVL

SMILES	IC50 (MRSA Pyk)	MIC (S. aureus (ATCC29213); [5])	MIC (MRSA MW2 (USA400); MRSA MW2 (USA400))	MIC (VRE#2 (2010A); VRE#2 (2010A))	also measured
COc1cc(O)c(CC=C(C)C)c(O)c1C(=O)/C=C/c1ccc(O)cc1 [xanthohumol]					CC50 at 24 h [1]: ~9 µg/mL (≈ 25.4 µM)
CN1CCN(CCC(=O)c2c(/C=C/c3ccc(Cl)cc3)[nH]c3cc(Br)ccc23)CC1 [Compound 7, (E)-1-(6-Bromo-2-(4-chlorostyryl)-1H-indol-3-yl)-3-(4-methylpiperazin-1-yl)propan-1-one Hydrochloride]	100 to 1000 nM				MIC (K. pneumoniae (C238)): 8 µg/mL; MIC (S. aureus (ATCC29213); ATCC29213, read-out: Antimicrobial activity (MIC) S. aureus ATCC29213): 8 µg/mL; MIC (MRSA MW2 (USA400)): 8 µg/mL; MIC (VRE#2 (2010A)): 8 µg/mL; MIC ([2]; ATCC17978, read-out: Antimicrobial activity (MIC) A. baumannii): > 64 µg/mL
CN(C)CCNC(=O)c1c(/C=C/c2ccc(Cl)cc2)[nH]c2cc(Br)ccc12 [Compound 23, (E)-6-Bromo-2-(4-chlorostyryl)-N-(2-(dimethylamino)ethyl)-1H-indole-3-carboxamide]	< 100 nM	8 µg/mL (≈ 17.9 µM)			reduction in CFU (S. aureus ATCC 29123): 3 log
O=C(O)CCCC(=O)c1c(-c2cc3cc(Cl)ccc3[nH]2)[nH]c2cc(Br)ccc12 [Compound 102, 5-(6-bromo-5′-chloro-1H,1′H-[2,2′-biindol]-3-yl)-5-oxopentanoic Acid]	< 100 nM	8 µg/mL (≈ 17.4 µM)	8 µg/mL (≈ 17.4 µM)	16 µg/mL (≈ 34.8 µM)	MIC (K. pneumoniae (C238); K. pneumoniae (C238)): 16 µg/mL (≈ 34.8 µM); MIC [3]: 8 µg/mL (≈ 17.4 µM)
CN(C)CCC(=O)c1c(/C=C/c2ccc(Cl)cc2)[nH]c2cc(Br)ccc12.Cl [Compound 6, (E)-1-(6-Bromo-2-(4-chlorostyryl)-1H-indol-3-yl)-3-(dimethylamino)propan-1-one Hydrochloride]	100 to 1000 nM	8 µg/mL	8 µg/mL	8 µg/mL	MIC (K. pneumoniae (C238)): 8 µg/mL; MIC [2, 6]: 64 µg/mL
CN(C)CCOc1cc2[nH]c(-c3cc4ccc(Br)cc4[nH]3)cc2cc1Cl [Compound 199, 2-((6′-Bromo-5-chloro-1H,1′H-[2,2′-biindol]-6-yl)oxy)-N,N-dimethylethan-1-amine]	< 100 nM	4 µg/mL (≈ 9.24 µM)		4 µg/mL (≈ 9.24 µM)	MIC (MRSA (ATCC BAA-1762)): 4 µg/mL (≈ 9.24 µM); MIC [4]: 8 µg/mL (≈ 18.5 µM); MIC [3]: 32 µg/mL (≈ 73.9 µM)
CN1CCN(CCOC(=O)c2c(/C=C/c3ccc(Cl)cc3)[nH]c3cc(Br)ccc23)CC1 [Compound 61, 2-(4-Methylpiperazin-1-yl)ethyl (E)-6-bromo-2-(4-chlorostyryl)-1H-indole-3-carboxylate]	100 to 1000 nM	4 µg/mL (≈ 7.95 µM)	4 µg/mL (≈ 7.95 µM)	4 µg/mL (≈ 7.95 µM)	MIC (K. pneumoniae (C238); K. pneumoniae (C238)): 4 µg/mL (≈ 7.95 µM); MIC [2, 6]: > 64 µg/mL
